Patent US20150086647A1, “PEROXYGEN RELEASE COMPOSITIONS AND METHOD FOR PRODUCING THEM” (CREACHEM SA, priority 2012, published 2015)

Test: Stability in the presence of ferric EDTA (Fe-catalyzed hydrogen peroxide decomposition)
Format: physicochemical
Settings: with ferric EDTA; for hydrogen peroxide concentration: diluted with tap water
Experimental: Approximately 250 μL of a 3% solution of ferric EDTA (ethylenediaminetetracetic acid), at pH 7, was added to 3.5 grams of the composition obtained from EXAMPLE I.
The same amount of ferric EDTA was added to 3.5 grams of a 27.5% wt H2O2 solution. Both the 3.5 grams of the composition according to EXAMPLE I and the 3.5 grams H2O2 solution, both containing the ferric EDTA, were diluted with a quantity of tap water until the water contained 50 ppm of H2O2, determined with colorimetric reagent strips (Merck).
The following table indicates the evolution of the hydrogen peroxide concentration (ppm) in both samples.

With H2O2 [Diluted H2O2] the “gas bubbles indicating Fe-catalyzed hydrogen peroxide decomposition” value (diluted to 50 ppm H2O2) was “appeared almost instantly”, the hydrogen peroxide concentration (0 h) was 50 ppm and the hydrogen peroxide concentration (4 h) was 20 ppm. It also gave a hydrogen peroxide concentration (18 h) of 15 ppm.
